Results: patent US20170320848A1, “COMPOUNDS FOR USE IN ANTHELMINTHIC TREATMENT” (Bayer Animal Health GMBH, priority 2014, published 2017)

Assay: Measurement of LogP values by HPLC on reversed phase columns (EEC directive 79/831 Annex V.A8)
Type: physicochemical
Details: acidic range, 0.1% formic acid in water and acetonitrile as eluent

Structure (SMILES)	logP (HCOOH)[a]
Cc1cc(-c2ccc(OC(F)(F)F)cc2)ccc1C(F)(F)CNC(=O)c1ccccc1C(F)(F)F [Example 76]	4.68
Cc1cc(-c2cccc(C(F)F)c2)ccc1C(F)(F)CNC(=O)c1ccccc1C(F)(F)F [Example 90]	4.07
N#Cc1ccc(-c2cc(F)c(C(F)(F)CNC(=O)c3ccccc3C(F)(F)F)c(F)c2)cc1 [Example 46]	3.53
COc1cc(-c2cccc(C(F)F)c2)ccc1C(F)(F)CNC(=O)c1ccccc1C(F)(F)F [Example 92]	3.81
O=C(NCC(F)(F)c1ccc(-c2ccc(OC(F)(F)F)c(F)c2)cc1Cl)c1ccccc1C(F)(F)F [Example 106]	4.8
Cc1cc(-c2ccc(C(F)F)cc2)ccc1C(F)(F)CNC(=O)c1ccccc1C(F)(F)F [Example 80]	4.06
O=C(NCC(F)(F)c1c(F)cc(-c2ccc(C(F)(F)F)cc2)cc1F)c1ccccc1C(F)(F)F [Example 86]	4.38
O=C(NCC(F)(F)c1ccc(-c2ccc([S+]([O-])C(F)(F)F)cc2)cc1Cl)c1ccccc1C(F)(F)F (centres unmarked) [Example 56]	3.87
N#Cc1cc(-c2ccc(OC(F)(F)F)cc2)ccc1C(F)(F)CNC(=O)c1ccccc1C(F)(F)F [Example 72]	4.23
O=C(NCC(F)(F)c1c(F)cc(-c2cccc(C(F)F)c2)cc1F)c1ccccc1C(F)(F)F [Example 82]	3.83
O=C(NCC(F)(F)c1ccc(-c2ccc(C(F)F)cc2)cc1Cl)c1ccccc1C(F)(F)F [Example 40]	3.99
O=C(NCC(F)(F)c1c(F)cc(-c2ccc(C(F)F)cc2)cc1F)c1ccccc1C(F)(F)F [Example 81]	3.9
Cc1cc(-c2cc(Cl)c(F)c(Cl)c2)ccc1C(F)(F)CNC(=O)c1ccccc1C(F)(F)F [Example 128]	5.08
O=C(NCC(F)(F)c1ccc(-c2ccc(F)cc2)cc1Cl)c1ccccc1I [Example 57]	4.17
N#Cc1cc(-c2cc(F)c(F)c(F)c2)ccc1C(F)(F)CNC(=O)c1ccccc1C(F)(F)F [Example 107]	3.89
O=C(NCC(F)(F)c1ccc(-c2cccc(OC(F)(F)F)c2)cc1Cl)c1ccccc1C(F)(F)F [Example 42]	4.61
N#Cc1ccc(-c2ccc(C(F)(F)CNC(=O)c3ccccc3C(F)(F)F)c(Cl)c2)c(F)c1 [Example 93]	3.76
COc1cc(-c2ccc(OC(F)(F)F)cc2)ccc1C(F)(F)CNC(=O)c1ccccc1C(F)(F)F [Example 77]	4.42
N#Cc1cc(-c2ccc(C(F)(F)F)cc2)ccc1C(F)(F)CNC(=O)c1ccccc1C(F)(F)F [Example 85]	4.07
CN1CCN(c2ccc(-c3ccc(C(F)(F)CNC(=O)c4ccccc4C(F)(F)F)c(Cl)c3)cc2)CC1 [Example 84]	1.84
O=C(NCC(F)(F)c1ccc(-c2ccc(S(=O)(=O)C(F)(F)F)cc2)cc1Cl)c1ccccc1C(F)(F)F [Example 45]	4.32
O=C(NCC(F)(F)c1ccc(-c2cc(F)c(Cl)c(F)c2)cc1Cl)c1ccccc1C(F)(F)F [Example 110]	4.77
N#Cc1ccc(-c2ccc(C(F)(F)CNC(=O)c3ccccc3C(F)(F)F)c(C#N)c2)cc1 [Example 73]	1.33
O=C(NCC(F)(F)c1ccc(-c2ccc(OC(F)(F)F)cc2)cc1Cl)c1ccccc1C(F)(F)F [Example 39]	4.67
O=C(NCC(F)(F)c1ccc(-c2ccc(F)cc2)cc1Cl)c1ccccc1Cl [Example 59]	4.0

Same assay, conditions: reversed phase HPLC columns, acidic range, 0.1% formic acid in water and acetonitrile as eluent, read-out: logP (HCOOH)[a]

Structure (SMILES)	chromatographic logP
CS(=O)(=O)c1ccc(-c2ccc(C(F)(F)CNC(=O)c3ccccc3C(F)(F)F)c(Cl)c2)cc1 [Example 24]	2.99
